The record followed here is patent US5532267A, “Amidinonaphthyl furancarboxylate derivatives and acid addition salts therof” (Torii & Co., Ltd., priority 1992, dated 1996).

The subject of assay [1] is adjuvant arthritis. Briefly: Effectiveness in treating adjuvant arthritis (Mycobacterium butyricum). Type of assay: in vivo, rat. The settings on record: oral, day -1 to day 13. The procedure:
Adjuvant arthritis is known as a representative model of autoimmune diseases and is a effective means of testing agents to treat human rheumatoid arthritis (Encyclopedia of Immunology, edited by I. M. Roitt, Academic Press, 1992; Otterness, I. G., et al., J. of Rheumatology (1991), volume 18, pages 505-511),
The method of experiment was as follows. A 0.6% Mycobacterium butyricum liquid paraffin suspension, 0.1 ml/animal, was administered to a rat at a subcutaneous site of left hind-limb sole to induce adjuvant arthritis. The present compound was orally administered (in the form of a suspension in water) consecutively from 1 day before the induction to 13 days after the induction. The efficacy of the present compound on adjuvant arthritis was evaluated by examining the swelling accompanied by red spots and subcutaneous knots at the fore-limb, hind-limb, tail, ear and periphery of eye with the lapse of days (on the 8th, 10th, 12th, 14th, 16th and 18th days after adjuvant administration), expressing the results in terms of scores according to the method of F. D. Wood et al. (Int. Arch. Allergy (1969), volume 35, pages 456-467), and calculating the percentage inhibition relative to the control group. Thus, the higher value of percentage inhibition indicates the higher effectiveness.

Assay [2] addresses T1, C1s (Homo sapiens, UniProt P09871).
T1 sequence (P09871 16-688): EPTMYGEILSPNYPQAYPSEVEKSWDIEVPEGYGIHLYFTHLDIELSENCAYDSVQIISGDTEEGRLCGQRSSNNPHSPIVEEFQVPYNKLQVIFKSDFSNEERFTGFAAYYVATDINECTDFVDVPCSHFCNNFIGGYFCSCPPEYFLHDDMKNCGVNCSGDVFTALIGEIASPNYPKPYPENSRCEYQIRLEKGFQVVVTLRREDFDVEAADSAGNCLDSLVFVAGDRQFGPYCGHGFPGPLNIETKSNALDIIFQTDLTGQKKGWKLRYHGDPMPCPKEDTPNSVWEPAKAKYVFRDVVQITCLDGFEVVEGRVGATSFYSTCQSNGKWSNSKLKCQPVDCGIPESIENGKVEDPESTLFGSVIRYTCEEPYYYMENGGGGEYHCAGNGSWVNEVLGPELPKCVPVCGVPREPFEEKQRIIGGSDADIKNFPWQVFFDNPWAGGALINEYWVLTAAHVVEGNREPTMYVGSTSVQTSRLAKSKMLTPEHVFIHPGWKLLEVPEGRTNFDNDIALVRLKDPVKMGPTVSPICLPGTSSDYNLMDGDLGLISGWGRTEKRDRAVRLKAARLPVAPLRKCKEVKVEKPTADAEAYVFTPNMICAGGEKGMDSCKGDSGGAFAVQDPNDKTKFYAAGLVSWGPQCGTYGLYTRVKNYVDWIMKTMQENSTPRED
Nature of the assay: anti-complement (anti-C1 esterase) activity, C1s hydrolysis of ATEE (acetyltyrosine ethyl ester). Format: biochemical. The settings on record: hydrolysis of ATEE; read-out: Cls: molar concentration inhibiting 50% of C1s activity (IC50).
Method: The anti-C1 esterase (C1r, C1s) activity was determined according to the method of Okamura et al. (Biochem. Biophys. Acta (1973), volume 295, pages 252-257). […] The values for C1s represent molar concentrations (IC50) of test compounds which inhibit 50% of the activity of C1s to hydrolyze ATEE (acetyltyrosine ethyl ester).

For assay [3], the system named is Masugi's nephritis. Nature of the assay: Effectiveness in treating Masugi's nephritis (experimental glomerulonephritis), protein in urine. Type of assay: in vivo, rat. The procedure:
[…] […] As the index to effectiveness, the protein concentration in urine was determined. That is, when inflammation develops in the kidney, it causes damage to renal tubules, etc., and a resultant increase in protein concentration in urine.

Assay [4] concerns the target thrombin (Homo sapiens, UniProt P00734). Nature of the assay: anti-thrombin activity, hydrolysis of TAME (tosylarginine methyl ester). Type of assay: biochemical. Conditions: hydrolysis of TAME; read-out: Thr: molar concentration inhibiting 50% of enzyme activity (IC50). The procedure:
(§1) The values in Table 1 represent molar concentrations (IC50) of test compounds which inhibit 50% of the activity of each enzyme to hydrolyze TAME (tosylarginine methyl ester). The anti-trypsin, anti-plasmin, anti-kallikrein and anti-thrombin activities were determined according to the method of Muramatsu et al. (J. Biochem. (1965), volume 58, page 214).

Assay [5] concerns kallikrein. Briefly: anti-kallikrein activity, hydrolysis of TAME (tosylarginine methyl ester). Type of assay: biochemical. Conditions: hydrolysis of TAME; read-out: Kal: molar concentration inhibiting 50% of enzyme activity (IC50). The procedure: as §1
Assay [6] has as its target T2, trypsin (Bos taurus, UniProt P00760).
T2 sequence (P00760 24-246): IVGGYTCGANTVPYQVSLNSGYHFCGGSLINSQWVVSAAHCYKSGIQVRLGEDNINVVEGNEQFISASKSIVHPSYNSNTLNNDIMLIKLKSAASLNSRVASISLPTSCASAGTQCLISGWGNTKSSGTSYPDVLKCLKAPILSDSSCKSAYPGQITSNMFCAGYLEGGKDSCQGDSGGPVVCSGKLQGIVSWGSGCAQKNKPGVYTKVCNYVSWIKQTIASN
Nature of the assay: anti-trypsin activity, hydrolysis of TAME (tosylarginine methyl ester). Type of assay: biochemical. Conditions: hydrolysis of TAME; read-out: Try: molar concentration inhibiting 50% of enzyme activity (IC50).

For assay [7], the target named is plasmin (Homo sapiens, UniProt P00747). Nature of the assay: anti-plasmin activity, hydrolysis of TAME (tosylarginine methyl ester). Type of assay: biochemical. Conditions: hydrolysis of TAME; read-out: Pla: molar concentration inhibiting 50% of enzyme activity (IC50). The procedure: as §1
The target in assay [8] is T3, C1r (Homo sapiens, UniProt P00736).
T3 sequence (P00736 18-705): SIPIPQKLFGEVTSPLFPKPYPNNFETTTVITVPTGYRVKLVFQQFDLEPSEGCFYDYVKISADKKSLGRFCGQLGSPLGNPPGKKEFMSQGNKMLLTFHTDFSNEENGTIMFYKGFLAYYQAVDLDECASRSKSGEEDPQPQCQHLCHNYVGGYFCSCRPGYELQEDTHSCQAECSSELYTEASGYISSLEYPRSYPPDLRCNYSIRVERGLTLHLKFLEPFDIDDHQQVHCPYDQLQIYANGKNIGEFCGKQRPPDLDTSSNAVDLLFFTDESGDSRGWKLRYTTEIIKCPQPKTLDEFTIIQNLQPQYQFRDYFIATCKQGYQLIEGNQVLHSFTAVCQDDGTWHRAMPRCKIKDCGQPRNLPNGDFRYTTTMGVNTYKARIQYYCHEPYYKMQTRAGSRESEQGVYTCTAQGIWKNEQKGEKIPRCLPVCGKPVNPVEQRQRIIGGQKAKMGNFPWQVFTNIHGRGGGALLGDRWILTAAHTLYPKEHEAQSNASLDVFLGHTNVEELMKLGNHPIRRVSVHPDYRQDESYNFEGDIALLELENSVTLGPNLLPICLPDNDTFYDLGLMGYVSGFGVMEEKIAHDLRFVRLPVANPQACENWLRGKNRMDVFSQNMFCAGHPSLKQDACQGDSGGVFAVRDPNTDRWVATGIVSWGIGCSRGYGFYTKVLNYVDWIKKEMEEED
Nature of the assay: anti-complement (anti-C1 esterase) activity, C1r hydrolysis of AAME (acetyl-arginine methyl ester). Type of assay: biochemical.

Setting [9] is: hydrolysis of AAME, read-out: Clr: molar concentration inhibiting 50% of C1r activity (IC50).

Counter-ions that a name gives are not always drawn. Like-named read-outs stand apart in the source and are kept apart here.

plasmin, sequence (P00747 581-810 limits assumed, species assumed): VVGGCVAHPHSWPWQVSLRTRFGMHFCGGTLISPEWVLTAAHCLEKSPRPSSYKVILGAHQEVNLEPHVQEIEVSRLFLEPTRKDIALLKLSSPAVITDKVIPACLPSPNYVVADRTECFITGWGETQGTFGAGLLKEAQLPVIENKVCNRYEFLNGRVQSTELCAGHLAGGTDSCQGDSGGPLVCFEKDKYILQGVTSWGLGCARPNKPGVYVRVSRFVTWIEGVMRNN
plasmin, sequence (P00747 97-580 partner limits assumed, species assumed): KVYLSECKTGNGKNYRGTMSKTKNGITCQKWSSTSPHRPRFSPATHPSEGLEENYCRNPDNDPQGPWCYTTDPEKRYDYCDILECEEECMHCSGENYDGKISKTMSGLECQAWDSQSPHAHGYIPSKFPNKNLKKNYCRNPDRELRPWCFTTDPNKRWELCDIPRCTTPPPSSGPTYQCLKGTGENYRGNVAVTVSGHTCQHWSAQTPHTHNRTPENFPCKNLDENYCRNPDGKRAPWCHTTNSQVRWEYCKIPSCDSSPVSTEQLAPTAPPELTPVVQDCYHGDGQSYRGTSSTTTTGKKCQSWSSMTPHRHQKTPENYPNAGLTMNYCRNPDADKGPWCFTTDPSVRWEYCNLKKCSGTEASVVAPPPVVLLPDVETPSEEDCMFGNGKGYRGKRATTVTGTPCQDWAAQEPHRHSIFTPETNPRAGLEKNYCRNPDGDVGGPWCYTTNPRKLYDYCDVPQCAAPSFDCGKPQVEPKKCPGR

Turning to `Cl.N=C(N)c1ccc2cc(OC(=O)c3ccc(CNC(=O)CC(=O)O)o3)ccc2c1` [Example 17, 6-Amidino-2-naphthyl 5-carboxyacetylaminomethylfuran-2-carboxylate hydrochloride], in assay [1] (60 mg/kg), the “Percentage inhibition (arthritis score)” value is on record as 75.1%. Besides, the IC50 is 53 nM in assay [2]; 1900 nM in assay [4]; 1100 nM in assay [5]; 470 nM in assay [6]; 43 nM in assay [7]; 1700 nM in assay [8] (setting [9]). Also, the “Protein concentration in urine” value in assay [3] (10 mg/kg, oral, mean ± standard deviation, 7 animals, control group 40.8 ± 15.1) was 2.0 ± 2.0 mg/mL.
With `CN(C)C(=O)COC(=O)CCC(=O)NCc1ccc(C(=O)Oc2ccc3cc(C(=N)N)ccc3c2)o1` [Example 31, 6-Amidino-2-naphthyl 5-(3-N,N-dimethylcarbamoylmethoxycarbonylpropionylaminomethyl)furan-2-carboxylate hydrochloride], in assay [1] (30 mg/kg), the “Percentage inhibition (arthritis score)” value is 67.7%. Further, the IC50 was determined as 450 nM in assay [2]; 150 nM in assay [4]; 170 nM in assay [5]; 600 nM in assay [6]; 160 nM in assay [7]; 290 nM in assay [8] (setting [9]).
With `Cl.N=C(N)c1ccc2cc(OC(=O)c3ccc(CNC(=O)[C@H]4CC[C@H](C(=O)O)CC4)o3)ccc2c1` [Example 11, 6-Amidino-2-naphthyl 5-(trans-4-carboxy-1-cyclohexanoylaminomethyl)furan-2-carboxylate hydrochloride], the IC50 in assay [2] came to 280 nM; in assay [4], 1200 nM; in assay [5], 870 nM; in assay [6] it was 660 nM; in assay [7] it was 400 nM; in assay [8] it was 1200 nM. In assay [3] (po, 30 mg/kg), the “Protein concentration in urine” value turned out to be 33.6 ± 17.8 mg/mL.
